Article PMC6604423, “A New Flavanone as a Potent Antioxidant Isolated from Chromolaena odorata L. Leaves” (Evidence-based Complementary and Alternative Medicine : eCAM, 2019)
Read-outs that look alike come from different tables or passages of the source.

What was measured:
[1] = target: α-glucosidase rat intestine enzyme; assay: α-Glucosidase inhibitory activity assay (rat intestinal acetone powder, maltose substrate); format: biochemical; conditions: 10 mM maltose, pH 6.9, 37°C, 10 min, mean ± SD, triplicate
Method: First, rat intestinal acetone powder (1 g) was suspended in 30 mL of normal saline. This suspended solution was sonicated for five minutes at 4°C. After centrifugation (12,000 rpm, 30 minutes, 4°C), the resulting supernatant was used for the assay. Briefly, a mixture of 10 μL samples, 30 μL of 0.1 M phosphate buffer (pH 6.9), 20 μL of 10 mM maltose, 80 μL glucose kit, and 20 μL of enzyme supernatant were incubated in 96-well plates at 37°C for 10 minutes. Acarbose was used as a standard. The absorbance was recorded at 490 nm by microplate reader (Biotek ELx800UV). The inhibitory activity was determined from the formula as follows:(2) Inhibition%=Ablank−Asample/Ablank×100 where Ablank = Aenzyme reaction − Ablank of enzyme reaction and Asample = Asample reaction − Ablank of sample reaction.

[2] = DPPH radical scavenging assay; conditions: 20 min, room temperature, 517 nm; mean ± SD, triplicate
Method: First, DPPH solution (6 × 10^−5 M) was separated by dissolving 2.37 mg of DPPH in 100 mL of methanol to obtain a working solution. […] Finally, the mixed sample solution was incubated for 20 minutes at room temperature. Then, the absorbance (As) of the reaction mixture was measured by UV-Vis spectrophotometer at 517 nm. The mixed solution between methanol and the working solution was used as blank to give the blank absorbance (Ab). Gallic acid was used as a standard. The inhibitory activity was calculated by (1).

[3] = ABTS radical cation scavenging assay; conditions: for ABTS IC50: 4 min, room temperature, 734 nm, mean ± SD, triplicate; for IC50: same result expressed in μM
Method: Free radical scavenging by ABTS radical was based on the method described previously by us. […] Those two solutions were mixed and incubated for 12-16 hours to obtain ABTS radical cation solution which is a dark blue solution. It was added with ± 274 mL of ethanol to give an absorbance of 0.7 ± 0.02 units at 734 nm for making a working solution. 1 mL of working solution was mixed with 10 μL of samples (n-hexane, dichloromethane, ethyl acetate, methanol, and water extracts) at maximum dissolved concentration in DMSO and mixed well. Finally, the mixed sample solution was incubated for four minutes at room temperature; then, the absorbance (As) of the reaction mixture was measured by UV-Vis spectrophotometers at 734 nm. The mixed solution between DMSO and the working solution was used as blank to give the blank absorbance (Ab). Trolox was used as a standard. […] The IC50 value was expressed as a quantity of an extract inhibitory concentration against a half of ABTS radicals.

[4] = in vitro, C. odorata leaves; cited from earlier work

SMILES	α-Glucosidase inhibition IC50 [1]	ABTS IC50 [3]	IC50 [3]	further results
C[C@H]1O[C@H](O[C@H]2[C@H](O)[C@@H](O)[C@@H](O[C@H]3[C@H](O)[C@@H](O)C(O)O[C@@H]3CO)O[C@@H]2CO)[C@H](O)[C@@H](O)[C@@H]1N[C@H]1C=C(CO)[C@@H](O)[C@H](O)[C@H]1O (some centres unmarked) [Acarbose, acarbose]	7.67 ± 1.86 µg/mL	–	–	–
O=C(O)c1cc(O)c(O)c(O)c1 [Gallic acid, gallic acid]	–	–	–	DPPH IC50 [2]: 1.11 ± 0.42 µg/mL
O=C1O[C@H]([C@@H](O)CO)C(O)=C1O [ascorbic acid]	–	–	–	ABTS IC50 [4]: 1000 µg/mL

Continued, in another order:

α-Glucosidase inhibition IC50 [1]	ABTS IC50 [3]	IC50 [3]	SMILES	further results
>62.5 µg/mL	7.51 ± 1.57 µg/mL	23.7 µM	COc1cc(O)c2c(c1)OC(c1cc(O)ccc1OC)CC2=O (centres unmarked) [Odoratenin (1), 5,3'-dihydroxy-7,6'-dimethoxyflavanone]	–
–	7.84 ± 0.45 µg/mL	31.3 µM	Cc1c(C)c2c(c(C)c1O)CCC(C)(C(=O)O)O2 (centres unmarked) [Trolox, 6-hydroxy-2,5,7,8-tetramethylchromen-2-carboxylate acid]	–
